Paper PMC12119673, “Apoptotic cell death induced by copper (II), manganese (II) and silver (I) complexes containing bridging dicarboxylate and 1,10-phenanthroline ligands: one of the multi-modes of anticancer activity?” (Biometals, 2025)
Read-outs that look alike come from different tables or passages of the source.

Experiments:
Assay type in all cases: cell-based, human
[1] = test system: MCF-7 cells; assay: In vitro cytotoxicity assessment, alamar blue assay, 24-h exposure
Procedure: The MCF-7 (human breast cancer) and MCF-12A (non-tumourigenic human breast) cell lines were obtained from the Technological University Dublin (TUDublin, City Campus) internal cell bank and commercially from the American Type Culture Collection (ATCC), respectively. Both cell lines were cultured using Dulbecco’s Modified Eagle Medium/Nutrient Mixture F-12 Ham (DMEM-F12) (Sigma, Ireland) (Cat# D6421) media. The MCF-7 media was supplemented with 10% Foetal Bovine Serum (Sigma, Ireland) (Cat# F7524) and 1% L-Glutamine (Sigma, Ireland) (Cat# 592020C). The MCF-12A media was supplemented with 5% Equine Serum (Sigma, Ireland) (Cat# H0146) 1.25% L-Glutamine (Sigma, Ireland) (Cat# 592020C), 20 ng/ml Human Epidermal Growth Factor (Thermo Fisher Scientific, Ireland) (Cat# PHG0313), 0.01 mg/ml insulin (Thermo Fisher Scientific, Ireland)(Cat# 12585014) and 500 ng/ml hydrocortisone (Sigma, Ireland) (Cat# H0888). The cells were grown in T75 culture flasks (Sarstedt, Germany) (Cat# 83.3911.002) and were incubated in a 5% CO2 atmosphere at 37 ℃. […] Following the incubation period, the media was removed, and cells were washed with sterile phosphate-buffered saline (PBS). […] Following the exposure period, the drug-containing media was removed, and cells were washed three times with PBS, ensuring complete removal of the test agents. A 5% working solution of Alamar Blue (Thermo Fisher Scientific, Ireland) (Cat# DAL1100) was prepared in dark conditions using unsupplemented cell culture media. 100 μl of the solution was added to each well, and the cells were incubated for 3 h. […] Each exposure was carried out in triplicate plates and was repeated three independent times. The software packages Microsoft^Ⓡ Excel (USA) and GraphPad Prism (Ver. 10.0.3) (GraphPad, USA) were used to analyse the alamar blue data. The treated sample values were first normalised to the negative control values. After normalisation, the mean and standard deviations (SD) were established using Microsoft^Ⓡ Excel. The statistical analysis package GraphPad was then used to determine the IC25 and IC50 concentrations.

[2] = test system: MCF-7 cells; assay: Detection of reactive oxygen species with H2DCFDA; conditions: MCF-7, 0.78 μM to 50 μM, over a 6-h period, fold-change compared to the negative control
Procedure: The production of reactive oxygen species (ROS) was detected in MCF-7 and MCF12A cells using the cell-permeant dye 2',7'- dichlorodihydrofluorescein diacetate (H2DCFDA) (Thermo Fisher Scientific, Ireland) (Cat# D399). Cells were seeded at a density of 1 × 10^4 in 96 well plates and incubated for 24 h. Post-incubation, the media was removed, and cells were washed with PBS. A 10 μM DCFH-DA working solution was prepared using cell culture media, and the cells were incubated with 100 μl of the solution in the dark for 30 min. […] Fluorescent measurements were recorded at 15 min, 30 min, 1 h, and subsequently every hour up to 6 h using a Varioskan Lux™ multimode microplate reader (Thermo Fisher Scientific, Ireland) at an excitation wavelength of 495 nm and emission of 527 nm. The assay was repeated three independent times, using three replicates per plate.
The cells were treated with a concentration range from 0.78 μM to 50 μM, and the response was measured over a 6-h period. This facilitated the evaluation of whether there was a time and/or concentration dependent response from the cells. Hydrogen peroxide (H2O2) was used as a positive control. ROS production is presented as fold-change compared to the negative control.

[3] = test system: caspase-3/7 in MCF-7 cells; assay: Caspase 3/7 expression, FLICA (FAM-DEVD-FMK) flow cytometry; conditions: MCF-7, IC25 concentration, 24 h
Procedure: The expression of caspase-3/7 in MCF-7 and MCF-12A cells was determined using the VybrantTM FAM™ Caspase-3 and Caspase-7 Assay Kit (Cat# V35118) (Thermo Fisher Scientific, Ireland). Cells were seeded at a density of 1 × 10^5 in T25 flasks and incubated in routine conditions for 24 h. […] Post-exposure, the cells were harvested for staining.
(§1) Flow cytometry data analysis was performed with the CytExpert package (Ver. 2.4) (Beckman Coulter, USA) and Microsoft^Ⓡ Excel (USA). The mean MFI and percentage cells were calculated using these packages, followed by one-way ANOVA analysis with post hoc Bonferroni correction using GraphPad Prism (Ver. 9.4) (GraphPad, USA).
The expression of caspase-3/7 was analysed in MCF-7 and MCF-12A cells using fluorescent labelled inhibitors of caspase (FLICA): FAM-DEVD-FMK. […] Following the apoptosis induction study, it was of interest to determine whether the complexes were stimulating the executioner caspases triggering the irreversible proteolytic degradation of cells, culminating in cell death. […] These three complexes were selected based on their structural similarities, while incorporating alternative metal centres.

[4] = test system: MCF-12A cells; assay: Apoptosis induction, Annexin V / propidium iodide flow cytometry; conditions: IC25 concentration, 24 h
Procedure: (§2) MCF-7 and MCF-12A cells were seeded at a density of 1 × 10^5 in T25 flasks (Sarstedt, Germany) and incubated for 24 h at 37 °C with 5% CO2 allowing for attachment. Post -incubation, the media was removed, cells were washed with sterile PBS and then treated using IC25 concentrations established from the in vitro cytotoxicity screen. […] After the exposure period, the cells were enzymatically detached using trypsin, collected and centrifuged at 1200RPM for 10 min. The cells were then washed with PBS, re-centrifuged and resuspended in 1 ml of annexin binding buffer. Prior to staining, the concentration of each sample was adjusted to 1 × 10^6 cells/ml. The cells were stained with 1 μl of propidium iodide (PI) (Sigma, Ireland) (Cat #P4864) and 2 μl of Annexin V (Thermo Fisher Scientific, Ireland) (Cat #A13199). The cells were incubated at room temperature for 15 min prior to analysis. The staining process was completed in the dark to eliminate interference with photo-sensitive reagents. Immediately prior to analysis by flow cytometry, 400 μl of annexin binding buffer was added to each sample. Samples were analysed using a (CytoFLEX) (Beckman Coulter, USA). The AV/PI assay was completed three independent times.
as §1
(§3) The induction of apoptosis was analysed in MCF-7 and MCF-12A cells using the Annexin V and Propidium Iodide assay with flow cytometry. […] The assay allows for the differentiation of viable, apoptotic and necrotic cells based on the selective staining of Annexin V and PI. Annexin V binds to phosphatidylserines externalised to the outer leaflet of the plasma membrane during apoptosis; and PI is a membrane impermeable dye that binds to DNA of necrotic cells with compromised plasma membranes.

[5] = test system: MCF-7 cells; assay: as above; conditions: MCF-7, IC25 concentration, 24 h
Procedure: as §2, §1, §3

[6] = MCF-7, 24-hour exposure, per one metal centre, mean ± S.D. (N=3)
[7] = MCF-7, 24-hour exposure, per one metal centre, mean ± S.D. (N=3), read-out: IC50 calculated per one metal centre
[8] = MCF-7, 24-h exposure, 25% reduction in metabolic activity, mean ± SD (N = 3)

Molecule	Cytotoxic activity IC25 ± SD [1] [µM]	IC50 [1] [µM]	IC25 calculated per one metal centre [1, 6]	IC50 [1, 7] [µM]	ROS production [2]	Cytotoxic activity IC25 ± SD [1, 8] [µM]	Expression of caspase-3/7 (% cells) [3]	Apoptotic population (% cells) [4]	Necrotic population (% cells) [4]	Necrotic population (% cells) [5]	IC50 ([1]; Homo sapiens, MCF7, MCF-7, 24-h exposure, 50% reduction in metabolic activity, mean ± SD (N = 3), read-out: Cytotoxic activity IC50 ± SD) [µM]	IC50 ([1]; MCF-7, 24-h exposure, 50% reduction in metabolic activity, mean ± SD (N = 3), read-out: Cytotoxic activity IC50 ± SD) [µM]
O=C([O-])CCCCCCC(=O)[O-].[Cu+2].[Cu+2].[O-][Cl+3]([O-])([O-])[O-].[O-][Cl+3]([O-])([O-])[O-].c1cnc2c(c1)ccc1cccnc12.c1cnc2c(c1)ccc1cccnc12.c1cnc2c(c1)ccc1cccnc12.c1cnc2c(c1)ccc1cccnc12 [Complex 1, [Cu2(oda)(phen)4](ClO4)2]	1.77 ± 0.14	4.76 ± 0.3	3.54 ± 0.28  µM	9.52 ± 0.6	moderate production of ROS							
O=C([O-])CCCCCCC(=O)[O-].[Cu+2].c1cnc2c(c1)ccc1cccnc12.c1cnc2c(c1)ccc1cccnc12 [Complex 2, [Cu(oda)(phen)2]]			2.04 ± 0.24  µM	6.72 ± 0.6	moderate production of ROS	2.04 ± 0.24	highest expression of caspase-3/7					
O=C([O-])CCCCCCC(=O)[O-].[Ag+].[Ag+].c1cnc2c(c1)ccc1cccnc12.c1cnc2c(c1)ccc1cccnc12.c1cnc2c(c1)ccc1cccnc12 [Complex 4, [Ag2(oda)(phen)3]]			11.04 ± 1.78  µM		lowest production	5.52 ± 0.89		significant decrease in apoptotic cells	virtually no necrotic population			
O=C([O-])CCCCCCCCCC(=O)[O-].[Ag+].[Ag+].c1cnc2c(c1)ccc1cccnc12.c1cnc2c(c1)ccc1cccnc12.c1cnc2c(c1)ccc1cccnc12 [Complex 5, [Ag2(udda)(phen)3]]			11.68 ± 0.24  µM		lowest production	5.84 ± 0.12		same level of apoptosis	no necrotic population was observed	significant population		
c1cnc2c(c1)ccc1cccnc12 [Phen, 1,10-Phenanthroline]			9.02 ± 4.26  µM			9.02 ± 4.26					33.2 ± 9.36	
{[Mn2(oda)3(phen)4]^2−[Mn2(oda)(phen)4 (H2O)2]^2+} [Complex 7]			2.80 ± 0.44  µM	11.2 ± 0.52	potent inducer of ROS, eliciting the highest production in MCF-7 cells	0.70 ± 0.11	lowest expression levels of the three complexes	significantly diminished apoptotic population	no necrosis observed	necrotic population also observed		2.79 ± 0.13
